Format in all cases: cell-based, mouse
In data set [1] the test system is MIN6. Briefly: Proportion of dead cells by propidium iodide, MIN6 at 4 DIV in culture. Here is the method:
(§1) A mouse pancreatic β-cell tumorigenic (insulinoma) cell line MIN6 (Miyazaki J. et al., Endocrinology 127:126-132, 1990) was used to perform the following experiment. Here, all experiments which include an experiment where the above-described compound B (hereinafter called LGG) is administered and an experiment where the above-described compound A (hereinafter called DGG) is administered and in which about 1,000 MIN6 cells were placed in 96 wells were carried out by taking care to avoid external disturbances as much as possible.
MIN6 cells derived from mouse pancreas are a heterogeneous cell population (Yamato, E. et al., PLOS One 8: e61211, 2013). Up to about 4 to 5 DIV after the start of culture, normal cells, that is, insulin-producing β-cells of pancreatic islets of Langerhans accounted for the majority. […]
Specifically, LGG and DGG were administered to MIN6 at 0 to 1,000 μm at 4 DIV in culture, and after the elapse of 90 minutes, the proportion of the number of dead cells evaluated using a dead cell marker propidium iodide (PI) was measured as a function of their concentrations. […] However, the vertical axis is a value (%) normalized by the fluorescence intensity of the total number of cells assuming that the number of dead cells at a concentration of 1,000 μm is the total number of cells in each well. […]

For data set [2], the system named is MIN6. Description: Optical microscope observation of cell conditions, MIN6 at 5 DIV, with or without PHT. As to the method: as §1
Here, a further experiment was carried out to verify whether the LGG-induced cell death clearly shown in FIG. 2 was indeed caused by the intracellular uptake of LGG. Specifically, whether the cell death is inhibited was examined by administering LGG in the presence of phloretin (hereinafter called PHT).
PHT functions as an inhibitor on various membrane transport proteins such as water channel proteins or glucose transporter proteins (Ono K. et al., Cancers 12:850, 2020). […] That is, it is estimated that, when an L-glucose derivative is applied to MIN6 cells in the presence of PHT, incorporation of LGG into “cells into which the L-glucose derivative can be incorporate” which are partially present in a heterogeneous cell population is inhibited by the effect of inhibiting a non-transporter type transport mechanism by PHT. […]

In data set [3] the test system is MIN6. Description: Calcein fluorescence intensity (activity of living cells), MIN6 at 5 DIV, with or without PHT. The following applies: FIG. 5. As to the method: as §1
Furthermore, the effect of LGG on cells was quantitatively analyzed in the presence or absence of PHT. Specifically, similarly to the cases of FIG. 3 described above, the fluorescence intensity of calcein, which is a fluorescent marker representing activities of living cells, was evaluated for the case (A) where LGG was not administered to MIN6 (at 5 DIV) (control experiment), the case (B) where 100 μm LGG was administered thereto for 10 minutes (LGG), and the case (C) where 100 μm LGG was administered thereto for 10 minutes after 150 μm PHT was administered in advance. In FIG. 5, the error bars indicate standard errors SE, and the numerical values in parentheses indicate the number of ROIs analyzed. […]

Data set [4] concerns MIN6. Description: Proportion of dead cells, MIN6 at long DIV (18 to 19 DIV) in culture. The following applies: MIN6 at 19 DIV for LGG, 18 DIV for DGG; administered for 10 minutes; FIG. 6. As to the method: as §1
Specifically, LGG and DGG were administered to MIN6 at 0 to 1,000 μm at 4 DIV in culture, and after the elapse of 90 minutes, the proportion of the number of dead cells evaluated using a dead cell marker propidium iodide (PI) was measured as a function of their concentrations. […] However, the vertical axis is a value (%) normalized by the fluorescence intensity of the total number of cells assuming that the number of dead cells at a concentration of 1,000 μm is the total number of cells in each well. The broken line is an eye guide.
Furthermore, the same experiment as that of FIG. 2 was carried out for MIN6 at long DIV in culture. However, in either case, observations were carried out after DGG or LGG was administered for 10 minutes.

Each structure is given as a SMILES string.

The text below walks through data of US12516082B2, “Metal-carbohydrate complex” (ARCZONE K.K., priority 2020, dated 2026).

For `CC[P+](CC)(CC)[Au-][S]C1OC(CO)C(O)C(O)C1O` [LGG, (1-thio-β-L-glucopyranoside) (S-triethylphosphine) gold (I)], the “safety against normal cells relative to DGG” value in data set [1] (MIN6 at 4 DIV (mostly normal β-cells), from 50% effective doses) was “approximately 10 times”. In addition, the “concentration above which cell death evaluated using PI becomes detectable” value in data set [1] (MIN6 at 4 DIV, 90 minutes after administration, interpolation of FIG. 2) was 10 μm. Also, the “cell conditions under optical microscope” value in data set [2] (100 μm LGG for 10 minutes after 150 μm PHT in advance, FIG. 3C, 4f-4i) is “cells indicating deterioration of the cell conditions are hardly recognized”; in data set [2] (100 μm LGG for 10 minutes, no PHT, FIG. 3B, 4e), “a part of cytoplasm in some cells protrudes outside the cells”. The “fluorescence intensity of calcein (cell activity): decrease due to LGG in presence of PHT” value in data set [3] (100 μm LGG for 10 minutes after 150 μm PHT in advance) is given as “significantly inhibited by PHT”. Moreover, in data set [3] (100 μm LGG for 10 minutes, no PHT), the “fluorescence intensity of calcein (cell activity) versus control” value was “significantly reduced activities of MIN6 cells”. Further, the “concentration dependence of the proportion of the number of dead cells” value in data set [4] is “almost matches the DGG concentration dependence”.
